Results published in US7205343B2, “Stabilized bioactive preparations and method of use” (priority 1997, dated 2007).

Key:
[1] = parameters: species or system rats; details: Wistar, rat, in vivo
Description: Ampicillin concentrations in lung tissue and serum were measured for the two treatment groups in Example XV by a bioassay method. In this method, 60 μl of lung tissue homogenate, or serum obtained from the rats at various points after dosing is placed on a sterile disk. The desk is them placed on an agar plate covered with S. pneumoniae and incubated for 24 hr. […] The no-growth zones were quantitated, and concentrations of antibiotic were calculated based on a standard curve.

Streptococcus pneumoniae = assay: Acute pneumonia model, survival after antibiotic treatment; type: in vivo, Male Wistar rats; details: rats inoculated intratracheally with 10^9 cfu S. pneumoniae; 10 mg ampicillin intramuscular one day after inoculation
Description: Male Wistar rats […] were inoculated intratracheally with 10^9 colony forming units of Streptococcus pneumoniae. The model is an acute pneumonia model with 100% of untreated control animals dying within 4 days of inoculation.

[2] = Gentamicin biodistribution in lung lobes by immunoassay; type: in vivo, New Zealand white rabbits; details: rabbits; 5 mg/kg; one hour post-administration
Description: Individual lobes of the lungs were collected and analyzed quantitatively for gentamicin by an immunoassay method. […] Excellent biodistribution across the lung lobes was observed following either IM or LDI administration.

serum glucose = assay: Serum glucose levels after LDI or IM insulin administration; type: in vivo; details: fasting rabbits
Description: In the case of LDI administration, rabbits were anesthetized, intubated, placed on a respirator, and their lungs were instilled with ca. 4.5 ml/kg of perflubron. […] Control animals were injected IM with a similar dose of insulin (Humulin R).

[3] = Plasma insulin pharmacokinetics after LDI or IM administration (radioimmunoassay); type: in vivo; details: fasting rabbits
[4] = Surfactant adsorption/spreading at the air/water interface; type: physicochemical
Description: Stabilized dispersions formed according to the present invention provide for enhanced surfactant spreading at the pulmonary air/water interface. In this regard, the equilibrium surface tension of dimyristoylphosphatidylcholine is ca. 22 mN/m. […] The slow adsorption for liposomes is due to the slow molecular diffusion of DMPC through the water phase. […] This rapid spreading and reduction of surface tension is indicative of what would occur upon contacting the perforated microstructures with a wetted pulmonary membrane.

**Q.** What does the source list for CC1(C)S[C@@H]2[C@H](NC(=O)[C@H](N)c3ccccc3)C(=O)N2[C@H]1C(=O)O [Ampicillin]?
**A.** local lung concentrations with LDI delivery relative to IM [1]: 250 times higher; persistence of local lung concentrations with LDI delivery [1]: persisted for several days; persistence of serum levels following LDI administration [1]: at least 4 hours; serum ampicillin levels following IM administration ([1]; 2 h): undetectable; animals surviving to 10 days (Streptococcus pneumoniae): 27%

**Q.** For gentamicin, which “lung gentamicin concentrations following LDI relative to IM” value [2] is on record?
**A.** ca. 2 orders of magnitude higher

**Q.** For Human Insulin, which Serum glucose level (serum glucose; IM Humulin R, 0 min) is on record?
**A.** 184.2 mg/dL

**Q.** And the Serum glucose level (serum glucose; IM Humulin R, 5 min)?
**A.** 253.6 mg/dL

**Q.** What about the Serum glucose level (serum glucose; IM Humulin R, 10 min) of the same compound?
**A.** 256.0 mg/dL

**Q.** And the Serum glucose level (serum glucose; IM Humulin R, 15 min)?
**A.** 216.8 mg/dL

**Q.** And the Serum glucose level (serum glucose; IM Humulin R, 30 min)?
**A.** 168.2 mg/dL

**Q.** What about the Serum glucose level (serum glucose; IM Humulin R, 60 min) of the same compound?
**A.** 82.0 mg/dL

**Q.** And the Serum glucose level (serum glucose; IM Humulin R, 90 min)?
**A.** 48.2 mg/dL

**Q.** And the Serum glucose level (serum glucose; IM Humulin R, 120 min)?
**A.** 18.0 mg/dL

**Q.** And the Serum glucose level (serum glucose; IM Humulin R, 150 min)?
**A.** 29.4 mg/dL

**Q.** And the Serum glucose level (serum glucose; IM Humulin R, 180 min)?
**A.** 28.8 mg/dL

**Q.** And the Serum glucose level (serum glucose; IM Humulin R, 240 min)?
**A.** 29.4 mg/dL

**Q.** What about the Serum glucose level (serum glucose; IM Humulin R, 360 min) of the same compound?
**A.** 115.8 mg/dL

**Q.** And the Serum glucose level (serum glucose; LDI Example XI formulation in perflubron, 0.86 IU/kg, 0 min)?
**A.** 175.7 mg/dL

**Q.** What about the Serum glucose level (serum glucose; LDI Example XI formulation in perflubron, 0.86 IU/kg, 5 min) of the same compound?
**A.** 218.8 mg/dL

**Q.** What about the Serum glucose level (serum glucose; LDI Example XI formulation in perflubron, 0.86 IU/kg, 10 min) of the same compound?
**A.** 211.7 mg/dL

**Q.** And the Serum glucose level (serum glucose; LDI Example XI formulation in perflubron, 0.86 IU/kg, 15 min)?
**A.** 198.2 mg/dL

**Q.** What about the Serum glucose level (serum glucose; LDI Example XI formulation in perflubron, 0.86 IU/kg, 30 min) of the same compound?
**A.** 143.3 mg/dL

**Q.** And the Serum glucose level (serum glucose; LDI Example XI formulation in perflubron, 0.86 IU/kg, 60 min)?
**A.** 83.2 mg/dL

**Q.** What about the Serum glucose level (serum glucose; LDI Example XI formulation in perflubron, 0.86 IU/kg, 90 min) of the same compound?
**A.** 38.2 mg/dL

**Q.** What about the Serum glucose level (serum glucose; LDI Example XI formulation in perflubron, 0.86 IU/kg, 120 min) of the same compound?
**A.** 31.2 mg/dL

**Q.** What about the Serum glucose level (serum glucose; LDI Example XI formulation in perflubron, 0.86 IU/kg, 150 min) of the same compound?
**A.** 31.7 mg/dL

**Q.** What about the Serum glucose level (serum glucose; LDI Example XI formulation in perflubron, 0.86 IU/kg, 180 min) of the same compound?
**A.** 33.4 mg/dL

**Q.** What about the Serum glucose level (serum glucose; LDI Example XI formulation in perflubron, 0.86 IU/kg, 240 min) of the same compound?
**A.** 49.2 mg/dL

**Q.** What about the Cmax ([3]; IM, Humulin R, dose similar to 0.86 IU/kg, plasma insulin) of the same compound?
**A.** 110.5 μU/ml

**Q.** And the AUC ([3]; IM, Humulin R, plasma insulin)?
**A.** 20770 μU min/ml

**Q.** What about the Tmax ([3]; IM, Humulin R, plasma insulin) of the same compound?
**A.** 60 min

**Q.** What about the AUC ([3]; LDI (4.5 ml/kg perflubron), Example XI formulation, 0.86 IU/kg) of the same compound?
**A.** 11100 μU min/ml

**Q.** And the Cmax ([3]; LDI (4.5 ml/kg perflubron), Example XI formulation, 0.86 IU/kg, plasma insulin)?
**A.** 210.4 μU/ml

**Q.** Which equilibrium surface tension [4] does the source give for CCCCCCCCCCCCCC(=O)OC[C@H](COP(=O)([O-])OCC[N+](C)(C)C)OC(=O)CCCCCCCCCCCCC [DMPC, dimyristoylphosphatidylcholine] here?
**A.** ca. 22 mN/m
